According to patent publication US20100130469A1, “2, 6-NAPHTHRIDINE DERIVATIVES” (priority 2007, published 2010):

Experiments:
[1] = test system: Bone marrow cells from CBA mice; assay: Bone Marrow Cell Proliferation (BM) assay; type: cell-based; details: mouse cells
Experimental: Bone marrow cells from CBA mice (2.5×10^4 cells per well in flat bottom tissue culture microtiter plates) are incubated in 100 μL RPMI medium containing 10% FCS, 100 U/mL penicillin, 100 μg/mL streptomycin (Gibco BRL, Baselm Switzerland), 50 μM 2-mercaptoethanol (Fluka, Buchs, Switzerland), WEHI-3 conditioned medium (7.5% v/v) and L929 conditioned medium (3% v/v) as a source of growth factors and serially diluted compounds. Seven three-fold dilution steps in duplicates per test compounds are performed. After four days of incubation 1 μCi ^3H-thymidine is added. Cells are harvested after an additional five-hour incubation period, and incorporated ^3H-thymidine is determined according to standard procedures. Conditioned media are prepared as follows. WEHI-3 cells (ATCC TIB68) and L929 cells (ATCC CCL 1) are grown in RPMI medium until confluence for 4 days and one week, respectively. Cells are harvested, resuspended in the same culture flasks in medium C containing 1% FCS (Schreier and Tess 1981) for WEHI-3 cells and RPMI medium for L929 cells and incubated for 2 days (WEHI-3) or one week (L929). The supernatant is collected, filtered through 0.2 μm and stored in aliquots at −80° C. Cultures without test compounds and without WEHI-3 and L929 supernatants are used as low control values. Low control values are substracted from all values. […]

PKCδ = target: T1, PKCδ (Homo sapiens, UniProt Q05655); assay: Protein Kinase Cδ assay; type: biochemical; details: ratio of IC50 values
T1 construct: purchased Oxford Biomedical Research
Experimental: (§1) The compounds of the invention are tested for their activity on different PKC isotypes according to the following method. Assay is performed in a white with clear bottom 384-well microtiterplate with non-binding surface. The reaction mixture (25 μl) contains 1.5 μM of a tridecapeptide acceptor substrate that mimics the pseudo substrate sequence of PKC a with the Ala→Ser replacement, 10 μM ^33P-ATP, 10 mM Mg(NO3)2, 0.2 mM CaCl2, PKC at a protein concentration varying from 25 to 400 ng/ml (depending on the isotype used), lipid vesicles (containing 30 mol % phosphatidylserine, 5 mol % DAG and 65 mol % phosphatidylcholine) at a final lipid concentration of 0.5 mM, in 20 mM Tris-HCl buffer pH 7.4+0.1% BSA. Incubation is performed for 60 min at room temperature.
Human recombinant PKC was obtained from Oxford Biomedical Research and is used under the assay conditions as described under Section A.1 above.

PKCθ = PKCθ (Homo sapiens, UniProt Q04759); assay: Protein Kinase C θ assay; type: biochemical; details: ratio of IC50 values
Experimental: as §1
Human recombinant PKCθ is used under the assay conditions as described above.

PKCβ1 = target: T2, PKCβ1 (Homo sapiens, UniProt P05771); assay: Protein Kinase Cβ1 assay; type: biochemical; details: ratio of IC50 values
T2 construct: purchased Oxford Biomedical Research
Experimental: as §1
Human recombinant PKCβ1 was obtained from Oxford Biomedical Research and is used under the assay conditions as described under Section A.1 above.

PKCα = target: T3, PKCα (Homo sapiens, UniProt P17252); assay: Protein Kinase Cα assay; type: biochemical; details: ratio of IC50 values
T3 construct: purchased Oxford Biomedical Research
Experimental: as §1
Human recombinant PKCα was obtained from Oxford Biomedical Research and is used under the assay conditions as described under Section A.1 above.

PKCε = target: T4, PKCε (Homo sapiens, UniProt Q02156); assay: Protein Kinase Cε assay; type: biochemical; details: ratio of IC50 values
T4 construct: purchased Oxford Biomedical Research
T4 sequence (Q02156 1-737): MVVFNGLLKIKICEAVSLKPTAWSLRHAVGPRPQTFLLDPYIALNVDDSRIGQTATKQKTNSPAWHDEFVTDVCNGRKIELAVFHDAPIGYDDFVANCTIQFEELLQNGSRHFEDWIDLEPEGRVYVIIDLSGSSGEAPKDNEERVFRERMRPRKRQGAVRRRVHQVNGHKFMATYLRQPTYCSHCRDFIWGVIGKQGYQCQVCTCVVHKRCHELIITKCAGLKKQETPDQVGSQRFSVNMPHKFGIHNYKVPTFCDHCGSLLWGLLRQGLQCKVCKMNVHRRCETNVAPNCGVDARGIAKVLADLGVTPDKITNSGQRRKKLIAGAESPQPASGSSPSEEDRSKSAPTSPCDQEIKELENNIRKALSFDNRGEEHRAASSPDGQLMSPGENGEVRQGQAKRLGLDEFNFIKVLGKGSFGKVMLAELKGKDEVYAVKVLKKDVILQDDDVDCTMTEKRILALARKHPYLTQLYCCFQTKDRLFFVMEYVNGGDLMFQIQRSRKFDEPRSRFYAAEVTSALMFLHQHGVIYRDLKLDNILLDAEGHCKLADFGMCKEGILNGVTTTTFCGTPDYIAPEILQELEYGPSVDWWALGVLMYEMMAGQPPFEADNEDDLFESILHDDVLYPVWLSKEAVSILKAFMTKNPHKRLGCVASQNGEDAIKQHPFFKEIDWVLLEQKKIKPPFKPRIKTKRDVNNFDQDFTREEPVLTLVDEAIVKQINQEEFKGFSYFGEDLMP
Experimental: as §1
Human recombinant PKCη was obtained from Oxford Biomedical Research and is used under the assay conditions as described under Section A.1 above.

PKCη = target: T5, PKCη (Homo sapiens, UniProt P24723); assay: Protein Kinase Cη assay; type: biochemical; details: human recombinant PKCη
T5 construct: purchased PanVera
Experimental: as §1
Human recombinant PKCη was obtained from PanVera and is used under the assay conditions as described under Section A.1 above.

T1 sequence (Q05655 whole entry): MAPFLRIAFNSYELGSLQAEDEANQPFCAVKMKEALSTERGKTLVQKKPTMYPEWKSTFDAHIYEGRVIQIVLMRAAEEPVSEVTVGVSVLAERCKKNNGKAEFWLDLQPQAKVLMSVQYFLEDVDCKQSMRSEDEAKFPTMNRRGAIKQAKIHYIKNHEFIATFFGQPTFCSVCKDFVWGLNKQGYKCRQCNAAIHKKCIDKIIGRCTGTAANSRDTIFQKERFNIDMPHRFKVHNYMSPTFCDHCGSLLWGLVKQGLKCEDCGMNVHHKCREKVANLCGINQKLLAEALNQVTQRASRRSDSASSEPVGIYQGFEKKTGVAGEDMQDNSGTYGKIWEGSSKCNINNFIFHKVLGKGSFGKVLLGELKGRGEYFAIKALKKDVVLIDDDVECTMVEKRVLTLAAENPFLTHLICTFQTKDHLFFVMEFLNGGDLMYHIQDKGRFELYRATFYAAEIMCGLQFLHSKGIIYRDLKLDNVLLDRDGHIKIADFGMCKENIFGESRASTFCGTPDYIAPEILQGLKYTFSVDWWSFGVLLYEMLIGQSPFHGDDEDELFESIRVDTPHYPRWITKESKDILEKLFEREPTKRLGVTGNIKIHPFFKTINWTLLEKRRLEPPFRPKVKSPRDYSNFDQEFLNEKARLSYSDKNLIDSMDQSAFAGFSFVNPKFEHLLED
PKCθ, sequence (Q04759 whole entry): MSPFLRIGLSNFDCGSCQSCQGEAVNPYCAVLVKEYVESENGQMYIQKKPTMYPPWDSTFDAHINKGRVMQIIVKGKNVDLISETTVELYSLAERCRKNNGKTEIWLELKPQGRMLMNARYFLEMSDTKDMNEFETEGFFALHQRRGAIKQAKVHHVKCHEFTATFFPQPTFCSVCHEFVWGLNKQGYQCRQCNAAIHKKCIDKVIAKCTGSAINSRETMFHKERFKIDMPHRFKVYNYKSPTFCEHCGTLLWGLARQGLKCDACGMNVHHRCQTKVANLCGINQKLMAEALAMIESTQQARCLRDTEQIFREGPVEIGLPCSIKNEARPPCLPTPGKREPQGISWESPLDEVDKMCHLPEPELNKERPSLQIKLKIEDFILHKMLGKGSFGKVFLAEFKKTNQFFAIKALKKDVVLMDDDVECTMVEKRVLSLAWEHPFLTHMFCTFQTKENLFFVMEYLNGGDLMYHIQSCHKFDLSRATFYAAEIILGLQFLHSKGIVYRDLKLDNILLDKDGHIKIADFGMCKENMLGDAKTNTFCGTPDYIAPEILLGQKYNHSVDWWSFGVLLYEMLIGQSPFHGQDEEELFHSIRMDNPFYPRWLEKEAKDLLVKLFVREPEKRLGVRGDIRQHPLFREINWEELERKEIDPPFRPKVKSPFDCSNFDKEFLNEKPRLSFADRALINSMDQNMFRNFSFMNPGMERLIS
T2 sequence (P05771 whole entry): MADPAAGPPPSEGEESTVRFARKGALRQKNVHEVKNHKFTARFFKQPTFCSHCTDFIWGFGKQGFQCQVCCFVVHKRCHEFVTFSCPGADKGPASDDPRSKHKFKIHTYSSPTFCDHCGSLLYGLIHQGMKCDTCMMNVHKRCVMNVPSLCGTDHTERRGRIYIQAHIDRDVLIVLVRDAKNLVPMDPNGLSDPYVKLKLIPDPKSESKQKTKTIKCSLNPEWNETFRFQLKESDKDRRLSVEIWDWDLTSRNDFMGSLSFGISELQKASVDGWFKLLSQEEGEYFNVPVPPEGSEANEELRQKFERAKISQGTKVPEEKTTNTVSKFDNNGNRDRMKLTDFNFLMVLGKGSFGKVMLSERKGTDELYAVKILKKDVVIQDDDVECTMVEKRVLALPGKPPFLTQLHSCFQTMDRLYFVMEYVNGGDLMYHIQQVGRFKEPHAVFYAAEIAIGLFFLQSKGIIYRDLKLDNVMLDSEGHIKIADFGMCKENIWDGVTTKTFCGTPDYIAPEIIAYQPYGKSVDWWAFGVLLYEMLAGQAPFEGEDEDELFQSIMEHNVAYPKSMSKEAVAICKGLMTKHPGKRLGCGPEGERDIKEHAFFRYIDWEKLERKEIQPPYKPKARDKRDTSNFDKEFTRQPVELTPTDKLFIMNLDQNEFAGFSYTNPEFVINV
T5 sequence (P24723 whole entry): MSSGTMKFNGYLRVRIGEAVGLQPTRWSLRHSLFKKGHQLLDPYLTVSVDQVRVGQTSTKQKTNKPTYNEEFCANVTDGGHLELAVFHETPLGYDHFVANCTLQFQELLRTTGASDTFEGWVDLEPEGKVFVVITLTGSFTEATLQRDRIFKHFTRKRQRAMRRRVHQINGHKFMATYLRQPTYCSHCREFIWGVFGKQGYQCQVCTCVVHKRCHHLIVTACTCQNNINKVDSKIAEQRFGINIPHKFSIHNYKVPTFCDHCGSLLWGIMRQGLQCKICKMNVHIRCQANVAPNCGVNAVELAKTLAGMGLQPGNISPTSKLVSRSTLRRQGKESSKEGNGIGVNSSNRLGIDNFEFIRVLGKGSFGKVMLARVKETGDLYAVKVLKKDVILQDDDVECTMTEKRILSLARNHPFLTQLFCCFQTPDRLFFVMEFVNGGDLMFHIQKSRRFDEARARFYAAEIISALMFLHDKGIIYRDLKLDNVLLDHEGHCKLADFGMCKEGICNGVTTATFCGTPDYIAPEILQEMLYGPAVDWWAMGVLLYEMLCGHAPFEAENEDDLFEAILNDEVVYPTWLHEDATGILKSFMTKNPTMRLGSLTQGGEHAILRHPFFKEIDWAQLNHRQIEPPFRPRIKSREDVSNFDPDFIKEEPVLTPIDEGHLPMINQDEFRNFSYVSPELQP

| δ/η: ratio of the IC50 value for PKCδ to the IC50 value for PKCη (PKCδ) | θ/η: ratio of the IC50 value for PKCθ to the IC50 value for PKCη (PKCθ) | β/η: ratio of the IC50 value for PKC β to the IC50 value for PKCη (PKCβ1) | α/η: ratio of the IC50 value for PKCα to the IC50 value for PKCη (PKCα) | ε/η: ratio of the IC50 value for PKCε to the IC50 value for PKCη (PKCε) | IC50 (PKCη) [nM] | SMILES | BM/MLR: ratio of IC50 values of BM assay and MLR assay [1] |
| --- | --- | --- | --- | --- | --- | --- | --- |
| 15 | 26 | 14 | 17 | 1 | – | C[C@@H]1CN(c2nc(-c3ccncc3)cc3cnccc23)[C@@H](C)CN1 (racemic) [Example 23, Rac-1-((2S,5R)-2,5-Dimethyl-piperazin-1-yl)-3-pyridin-4-yl-[2,6]naphthyridine] | 24 |
| 4 | 30 | 196 | 506 | 3 | – | C[C@H](N)CNc1nc(-c2ccncc2)cc2cnccc12 [Example 71a, (S)—N*1*-(3-Pyridin-4-yl-[2,6]naphthyridin-1-yl)-propane-1,2-diamine] | 30 |
| – | – | – | – | – | 162 | CC(C)(N)COc1nc(-c2ccncc2)cc2cnccc12 [Example 81, 1,1-Dimethyl-2-(3-pyridin-4-yl-[2,6]naphthyridin-1-yloxy)-ethylamine] | – |
| – | – | – | – | – | 54 | CC(C)(N)CNc1cc(-c2ccncc2)cc2cnccc12 [Example 83, 2-Methyl-N*1*-(7-pyridin-4-yl-isoquinolin-5-yl)-propane-1,2-diamine] | – |
